Experimental data as given in patent US10646488B2 (Araxes Pharma LLC, priority 2016, dated 2020).

Target: T1, KRAS G12C 1-169, his-tagged protein, GDP-loaded (Homo sapiens, UniProt P01116, G12C)
T1 construct: KRAS G12C 1-169, his-tagged protein, GDP-loaded
Experiment: Covalent binding (% modification) to KRAS G12C by mass spectrometry; also: test concentration or dose not given here
Conditions: % modification at 10 min (footnote †)

Structure (SMILES) | Binding %
CC#CC(=O)N1C[C@H](C)N(c2nc(N3CC(N(C)C)C3)nc3c(F)c(-c4c(O)cccc4F)c(Cl)cc23)C[C@H]1C [Compound 114, 1-((2R,5S)-4-(6-chloro-2-(3-(dimethylamino)azetidin-1-yl)-8-fluoro-7-(2-fluoro-6-hydroxyphenyl)quinazolin-4-yl)-2,5-dimethyl-piperazin-1-yl) but-2-yn-1-one] | + (+ indicates binding activity greater than 0% and up to 50%)

Same assay, conditions: covalent binding to KRAS G12C after a ten minute incubation period

Structure (SMILES) | Binding %
C=CC(=O)N1CCN(c2nc(N)nc3c(F)c(-c4c(O)cccc4F)c(Cl)cc23)C[C@@H]1C [Compound 3, 1-((2S)-4-(2-amino-6-chloro-8-fluoro-7-(2-fluoro-6-hydroxyphenyl)quinazolin-4-yl)-2-methylpiperazin-1-yl)prop-2-en-1-one] | ++ (++ indicates binding activity from 50 to 90%)
C=CC(=O)N1[C@H](C)CN(c2nc(OC3CCN(C4CC4)CC3)nc3c(F)c(-c4c(C)ccc5[nH]ncc45)c(Cl)cc23)C[C@@H]1C [Compound 37, 1-((2S,6R)-4-(6-chloro-2-((1-cyclopropyl-piperidin-4-yl)oxy)-8-fluoro-7-(5-methyl-1H-indazol-4-yl)quinazolin-4-yl)-2,6-dimethyl-piperazin-1-yl) prop-2-en-1-one] | ++ (++ indicates binding activity from 50 to 90%)
C=CC(=O)N1C[C@@H](C)N(c2nc(NC3CCN(C4CC4)CC3)nc3c(F)c(-c4c(C)ccc5cn[nH]c45)c(Cl)cc23)[C@@H](C)C1 [Compound 43, 1-((3S,5R)-4-(6-chloro-2-((1-cyclopropyl-piperidin-4-yl)amino)-8-fluoro-7-(6-methyl-1H-indazol-7-yl)quinazolin-4-yl)-3,5-dimethyl-piperazin-1-yl) prop-2-en-1-one] | ++ (++ indicates binding activity from 50 to 90%)
C=CC(=O)N1CCN(c2nc(N3CC(N(C)C)C3)nc3c(F)c(-c4c(O)cccc4F)c(Cl)cc23)C[C@H]1C [Compound 56, 1-((2R)-4-(6-chloro-2-(3-(dimethylamino)azetidin-1-yl)-8-fluoro-7-(2-fluoro-6-hydroxyphenyl)quinazolin-4-yl)-2-methylpiperazin-1-yl)prop-2-en-1-one] | +++ (+++ indicates binding activity greater than 90%)
C=CC(=O)N1CCN(c2nc(N3CC(N(C)C)C3)nc3c(F)c(-c4c(O)cccc4F)c(Cl)cc23)C[C@@H]1C [Compound 82, 1-((2S)-4-(6-chloro-2-(3-(dimethylamino)azetidin-1-yl)-8-fluoro-7-(2-fluoro-6-hydroxyphenyl)quinazolin-4-yl)-2-methyl-piperazin-1-yl) prop-2-en-1-one] | ++ (++ indicates binding activity from 50 to 90%)
C=CC(=O)N1[C@H](C)CN(c2nc(N3CC(N(C)C)C3)nc3c(F)c(-c4c(O)cccc4F)c(Cl)cc23)C[C@@H]1C [Compound 68, 1-((2R,6S)-4-((R)-6-chloro-2-(3-(dimethylamino)azetidin-1-yl)-8-fluoro-7-(2-fluoro-6-hydroxyphenyl)quinazolin-4-yl)-2,6-dimethyl-piperazin-1-yl) prop-2-en-1-one] | +++ (+++ indicates binding activity greater than 90%)
C=CC(=O)N1C[C@@H](C)N(c2nc(OCCN3CC(F)(F)C3)nc3c(F)c(-c4c(C)ccc5[nH]ncc45)c(Cl)cc23)[C@@H](C)C1 [Compound 45, 1-((3S,5R)-4-(6-chloro-2-(2-(3,3-difluoroazetidin-1-yl)ethoxy)-8-fluoro-7-(5-methyl-1H-indazol-4-yl)quinazolin-4-yl)-3,5-dimethyl-piperazin-1-yl) prop-2-en-1-one] | ++ (++ indicates binding activity from 50 to 90%)

Same assay, conditions: covalent binding to KRAS G12C after a three minute incubation period

Structure (SMILES) | Binding %
C=CC(=O)N1C[C@@H](C)N(c2nc(N3CC(N(C)C)C3)nc3c(F)c(-c4c(O)cccc4F)c(Cl)cc23)C[C@H]1C [Compound 86, 1-((2R,5R)-4-(6-chloro-2-(3-(dimethylamino)azetidin-1-yl)-8-fluoro-7-(2-fluoro-6-hydroxyphenyl)quinazolin-4-yl)-2,5-dimethyl-piperazin-1-yl) prop-2-en-1-one] | + (+ indicates binding activity greater than 0% and up to 50%)
C=CC(=O)N1C[C@H](C)N(c2nc(OCCn3ccnc3)nc3c(F)c(-c4c(O)cccc4F)c(Cl)cc23)C[C@H]1C [Compound 232, 1-((2R,5S)-4-(2-(2-(1H-imidazol-1-yl)ethoxy)-6-chloro-8-fluoro-7-(2-fluoro-6-hydroxyphenyl)quinazolin-4-yl)-2,5-dimethyl-piperazin-1-yl) prop-2-en-1-one] | ++ (++ indicates binding activity from 50 to 90%)
C=CC(=O)N1C[C@@H](C)N(c2nc(N3CC(N(C)C)C3)nc3c(F)c(-c4c(O)cccc4F)c(Cl)cc23)C[C@@H]1C [Compound 87, 1-((2S,5R)-4-(6-chloro-2-(3-(dimethylamino)azetidin-1-yl)-8-fluoro-7-(2-fluoro-6-hydroxyphenyl)quinazolin-4-yl)-2,5-dimethyl-piperazin-1-yl) prop-2-en-1-one] | + (+ indicates binding activity greater than 0% and up to 50%)
C=CC(=O)N1C[C@H](C)N(c2nc(Oc3cn[nH]c3)nc3c(F)c(-c4c(O)cccc4F)c(Cl)cc23)C[C@H]1C [Compound 222, 1-((2R,5S)-4-(2-(1H-pyrazol-4-yloxy)-6-chloro-8-fluoro-7-(2-fluoro-6-hydroxy-phenyl)quinazolin-4-yl)-2,5-dimethyl-piperazin-1-yl) prop-2-en-1-one] | ++ (++ indicates binding activity from 50 to 90%)
C=CC(=O)N1C[C@H](C)N(c2nc(N3CC4(CCOCC4)C3)nc3c(F)c(-c4c(O)cccc4F)c(Cl)cc23)C[C@H]1C [Compound 159, 1-((2R,5S)-4-(6-chloro-8-fluoro-7-(2-fluoro-6-hydroxyphenyl)-2-(7-oxa-2-azaspiro[3.5]nonan-2-yl)quinazolin-4-yl)-2,5-dimethyl-piperazin-1-yl) prop-2-en-1-one] | ++ (++ indicates binding activity from 50 to 90%)
C=CC(=O)N1C[C@H](C)N(c2nc(N3CC4(CCN(C)C4)C3)nc3c(F)c(-c4c(O)cccc4F)c(Cl)cc23)C[C@H]1C [Compound 190, 1-((2R,5S)-4-(6-chloro-8-fluoro-7-(2-fluoro-6-hydroxyphenyl)-2-(6-methyl-2,6-diazaspiro[3.4]octan-2-yl)quinazolin-4-yl)-2,5-dimethyl-piperazin-1-yl) prop-2-en-1-one] | ++ (++ indicates binding activity from 50 to 90%)
C=CC(=O)N1C[C@H](C)N(c2nc(OCCN3CC(F)(F)C3)nc3c(F)c(-c4c(O)cccc4F)c(Cl)cc23)C[C@H]1C (atropisomer, axis not shown) [Compound 90, 1-((2R,5S)-4-(6-chloro-2-(2-(3,3-difluoroazetidin-1-yl)ethoxy)-8-fluoro-7-((S)-2-fluoro-6-hydroxyphenyl)quinazolin-4-yl)-2,5-dimethyl-piperazin-1-yl) prop-2-en-1-one] | +++ (+++ indicates binding activity greater than 90%)
C=CC(=O)N1C[C@H](C)N(c2nc(Oc3cnn(C)c3)nc3c(F)c(-c4cc(O)cc5ccccc45)c(Cl)cc23)C[C@H]1C [Compound 216, 1-((2R,5S)-4-(6-chloro-8-fluoro-7-(3-hydroxy-naphthalen-1-yl)-2-(1-methyl-1H-pyrazol-4-yloxy)quinazolin-4-yl)-2,5-dimethyl-piperazin-1-yl) prop-2-en-1-one] | ++ (++ indicates binding activity from 50 to 90%)
[2H]C([2H])([2H])N(C1CN(c2nc(N3C[C@@H](C)N(C(=O)C=C)C[C@@H]3C)c3cc(Cl)c(-c4cc(O)cc5ccccc45)c(F)c3n2)C1)C([2H])([2H])[2H] (atropisomer, axis not shown) [Compound 228] | +++ (+++ indicates binding activity greater than 90%)
C=CC(=O)N1C[C@H](C)N(c2nc(N3CC(N(C)C)C3)nc3c(F)c(-c4ccccc4C(F)(F)F)c(Cl)cc23)C[C@H]1C [Compound 168, 1-((2R,5S)-4-(6-chloro-2-(3-(dimethylamino)azetidin-1-yl)-8-fluoro-7-(2-(trifluoromethyl)phenyl)quinazolin-4-yl)-2,5-dimethyl-piperazin-1-yl) prop-2-en-1-one] | ++ (++ indicates binding activity from 50 to 90%)
[2H]C([2H])([2H])N(C1CN(c2nc(N3C[C@@H](C)N(C(=O)C=C)C[C@@H]3C)c3cc(Cl)c(-c4c(C)ccc5[nH]ncc45)c(F)c3n2)C1)C([2H])([2H])[2H] (atropisomer, axis not shown) [Compound 227, 1-((2R,5S)-4-(6-chloro-2-(3-(bis(triduetero-methyl)amino)azetidin-1-yl)-8-fluoro-7-((S)-5-methyl-1H-indazol-4-yl)quinazolin-4-yl)-2,5-dimethyl-piperazin-1-yl) prop-2-en-1-one] | + (+ indicates binding activity greater than 0% and up to 50%)
C=CC(=O)N1C[C@H](C)N(c2nc(NC3CCN(C4CC4)CC3)nc3c(F)c(-c4c(C)ccc5cn[nH]c45)c(Cl)cc23)C[C@H]1C [Compound 145, 1-((2R,5S)-4-(6-chloro-2-((1-cyclopropyl-piperidin-4-yl)amino)-8-fluoro-7-(6-methyl-1H-indazol-7-yl)quinazolin-4-yl)-2,5-dimethyl-piperazin-1-yl) prop-2-en-1-one] | ++ (++ indicates binding activity from 50 to 90%)
C=CC(=O)N1C[C@H](C)N(c2nc(N3CC(NC)C3)nc3c(F)c(-c4c(C)ccc5cn[nH]c45)c(Cl)cc23)C[C@H]1C (atropisomer, axis not shown) [Compound 108, 1-((2R,5S)-4-(6-chloro-8-fluoro-7-((R)-6-methyl-1H-indazol-7-yl)-2-(3-(methylamino)azetidin-1-yl)quinazolin-4-yl)-2,5-dimethyl-piperazin-1-yl) prop-2-en-1-one] | +++ (+++ indicates binding activity greater than 90%)
C=CC(=O)N1C[C@H](C)N(c2nc(OCCCN3CCC(F)(F)C3)nc3c(F)c(-c4c(C)ccc5[nH]ncc45)c(Cl)cc23)C[C@H]1C [Compound 231, 1-((2R,5S)-4-(6-chloro-2-(3-(3,3-difluoropyrrolidin-1-yl)propoxy)-8-fluoro-7-(5-methyl-1H-indazol-4-yl)quinazolin-4-yl)-2,5-dimethyl-piperazin-1-yl) prop-2-en-1-one] | ++ (++ indicates binding activity from 50 to 90%)
